Reference: ChEMBL document CHEMBL3872214, “Synthesis and evaluation of in vivo antioxidant, in vitro antibacterial, MRSA and antifungal activity of novel substituted isatin N-(2,3,4,6-tetra-O-acetyl-β-d-glucopyranosyl)thiosemicarbazones” (Eur J Med Chem, 2016)
Converted amounts (≈) assume the structure as drawn.

What was measured:
Type in all cases: functional
[1] = test system: Aspergillus niger; test: Antifungal activity against Aspergillus niger 439 after 72 hrs by agar dilution method; conditions: Aspergillus niger, 439, 72 h
[2] = test system: Rattus norvegicus; test: Antioxidant activity in CCL4-intoxicated Wistar albino rat assessed as liver cytosolic glutathione peroxidase activity per mg protein at 100 mg/kg, ip administered for 7 consecutive days after DL-alpha-tocopherol acetate treatment followed by CCL4 dosing measured after 24 hrs by H2O2 based spectrophotometric analysis (reference value: 0.28 +/- 0.01 U)
[3] = Antifungal activity against Fusarium oxysporum M42 after 72 hrs by agar dilution method
[4] = test system: Staphylococcus epidermidis; test: Antibacterial activity against Staphylococcus epidermidis ATCC 12228 after 18 to 20 hrs by two-fold microbroth dilution method
[5] = test system: Klebsiella pneumoniae; test: Antibacterial activity against Klebsiella pneumoniae ATCC 4352 after 18 to 20 hrs by two-fold microbroth dilution method
[6] = test system: Klebsiella aerogenes; test: Antibacterial activity against Enterobacter aerogenes ATCC 13048 after 18 to 20 hrs by two-fold microbroth dilution method
[7] = Antifungal activity against Saccharomyces cerevisiae SH20 after 72 hrs by agar dilution method
[8] = test system: Candida albicans; test: Antifungal activity against Candida albicans ATCC 7754 after 72 hrs by agar dilution method; conditions: ATCC 7754, 72 h
[9] = test system: Rattus norvegicus; test: Antioxidant activity in CCL4-intoxicated Wistar albino rat assessed as liver cytosolic catalase activity per mg protein at 100 mg/kg, ip administered for 7 consecutive days after DL-alpha-tocopherol acetate treatment followed by CCL4 dosing measured after 24 hrs by H2O2 based assay (reference value: 220.15 +/- 11.43 U)
[10] = test system: Staphylococcus aureus; test: Antibacterial activity against methicillin-resistant Staphylococcus aureus 198-3 after 18 to 20 hrs by two-fold microbroth dilution method
[11] = test system: Rattus norvegicus; test: Antioxidant activity in CCL4-intoxicated Wistar albino rat assessed as liver cytosolic superoxide dismutase activity per mg protein at 100 mg/kg, ip administered for 7 consecutive days after DL-alpha-tocopherol acetate treatment followed by CCL4 dosing measured after 24 hrs by xanthine based assay (reference value: 5.27 +/- 0.22 U)
[12] = test system: Staphylococcus aureus; test: Antibacterial activity against methicillin-resistant Staphylococcus aureus 198-1 after 18 to 20 hrs by two-fold microbroth dilution method
[13] = test system: Pseudomonas aeruginosa; test: Antibacterial activity against Pseudomonas aeruginosa […] after 18 to 20 hrs by two-fold microbroth dilution method
[14] = test system: Staphylococcus aureus; test: Antibacterial activity against Staphylococcus aureus ATCC 11632 after 18 to 20 hrs by two-fold microbroth dilution method
[15] = test system: Staphylococcus aureus; test: Antibacterial activity against methicillin-resistant Staphylococcus aureus 198-2 after 18 to 20 hrs by two-fold microbroth dilution method
[16] = test system: Bacillus subtilis; test: Antibacterial activity against Bacillus subtilis ATCC 11774 after 18 to 20 hrs by two-fold microbroth dilution method
[17] = test system: Escherichia coli; test: Antibacterial activity against Escherichia coli ATCC 25922 after 18 to 20 hrs by two-fold microbroth dilution method

Row | SMILES | MIC [1] [µM] | Activity [2] [U] | MIC [3] [µM] | MIC [4] [µM] | MIC [5] [µM] | MIC [6] [µM] | MIC [7] [µM] | MIC [8] [µM] | Activity [9] [U] | MIC [10] [µM] | Activity [11] [U] | MIC [12] [µM] | MIC [13] [µM] | MIC [14] [µM] | MIC [15] [µM] | MIC [16] [µM] | MIC [17] [µM]
1 | CC(=O)OC[C@H]1O[C@@H](NC(=S)N/N=C2/C(=O)Nc3c2cc(Br)cc3[N+](=O)[O-])[C@H](OC(C)=O)[C@@H](OC(C)=O)[C@@H]1OC(C)=O | 12.5 (≈ 8.43 µg/mL) | 0.37 | 6.25 (≈ 4.22 µg/mL) | 6.25 (≈ 4.22 µg/mL) | 25 (≈ 16.9 µg/mL) | 25 (≈ 16.9 µg/mL) | 12.5 (≈ 8.43 µg/mL) | 12.5 (≈ 8.43 µg/mL) | 381.67 | 6.25 (≈ 4.22 µg/mL) | 10.76 | 6.25 (≈ 4.22 µg/mL) | 25 (≈ 16.9 µg/mL) | 6.25 (≈ 4.22 µg/mL) | 6.25 (≈ 4.22 µg/mL) | 3.12 (≈ 2.1 µg/mL) | 25 (≈ 16.9 µg/mL)
2 | CCCCN1C(=O)/C(=N/NC(=S)N[C@@H]2O[C@H](COC(C)=O)[C@@H](OC(C)=O)[C@H](OC(C)=O)[C@H]2OC(C)=O)c2ccccc21 | 100 (≈ 60.7 µg/mL) | 0.93 | 100 (≈ 60.7 µg/mL) | 100 (≈ 60.7 µg/mL) | 12.5 (≈ 7.58 µg/mL) | 12.5 (≈ 7.58 µg/mL) | 100 (≈ 60.7 µg/mL) | 100 (≈ 60.7 µg/mL) | 377.61 | 100 (≈ 60.7 µg/mL) | 9.89 | 100 (≈ 60.7 µg/mL) | 12.5 (≈ 7.58 µg/mL) | 100 (≈ 60.7 µg/mL) | 100 (≈ 60.7 µg/mL) | 100 (≈ 60.7 µg/mL) | 12.5 (≈ 7.58 µg/mL)
3 | CC(=O)OC[C@H]1O[C@@H](NC(=S)N/N=C2/C(=O)Nc3ccc([N+](=O)[O-])cc32)[C@H](OC(C)=O)[C@@H](OC(C)=O)[C@@H]1OC(C)=O | 100 (≈ 59.6 µg/mL) | 1.89 | 100 (≈ 59.6 µg/mL) | 100 (≈ 59.6 µg/mL) | 50 (≈ 29.8 µg/mL) | 50 (≈ 29.8 µg/mL) | 100 (≈ 59.6 µg/mL) | 100 (≈ 59.6 µg/mL) | 283.53 | 200 (≈ 119 µg/mL) | 6.45 | 200 (≈ 119 µg/mL) | 50 (≈ 29.8 µg/mL) | 200 (≈ 119 µg/mL) | 200 (≈ 119 µg/mL) | 100 (≈ 59.6 µg/mL) | 50 (≈ 29.8 µg/mL)
4 | CC(=O)OC[C@H]1O[C@@H](NC(=S)N/N=C2/C(=O)N(CCc3ccccc3)c3ccccc32)[C@H](OC(C)=O)[C@@H](OC(C)=O)[C@@H]1OC(C)=O | 200 (≈ 131 µg/mL) | 1.73 | 200 (≈ 131 µg/mL) | 200 (≈ 131 µg/mL) | 100 (≈ 65.5 µg/mL) | 100 (≈ 65.5 µg/mL) | 400 (≈ 262 µg/mL) | 400 (≈ 262 µg/mL) | 260.61 | 200 (≈ 131 µg/mL) | 8.45 | 200 (≈ 131 µg/mL) | 100 (≈ 65.5 µg/mL) | 200 (≈ 131 µg/mL) | 200 (≈ 131 µg/mL) | 200 (≈ 131 µg/mL) | 100 (≈ 65.5 µg/mL)
5 | CC(=O)OC[C@H]1O[C@@H](NC(=S)N/N=C2/C(=O)Nc3ccc(F)cc32)[C@H](OC(C)=O)[C@@H](OC(C)=O)[C@@H]1OC(C)=O | 12.5 (≈ 7.11 µg/mL) | 0.39 | 12.5 (≈ 7.11 µg/mL) | 3.12 (≈ 1.77 µg/mL) | 50 (≈ 28.4 µg/mL) | 50 (≈ 28.4 µg/mL) | 6.25 (≈ 3.55 µg/mL) | 6.25 (≈ 3.55 µg/mL) | 379.56 | 1.56 (≈ 0.887 µg/mL) | 9.84 | 1.56 (≈ 0.887 µg/mL) | 50 (≈ 28.4 µg/mL) | 3.12 (≈ 1.77 µg/mL) | 3.12 (≈ 1.77 µg/mL) | 3.12 (≈ 1.77 µg/mL) | 50 (≈ 28.4 µg/mL)
6 | CC(=O)OC[C@H]1O[C@@H](NC(=S)N/N=C2/C(=O)Nc3c2cc(Cl)cc3[N+](=O)[O-])[C@H](OC(C)=O)[C@@H](OC(C)=O)[C@@H]1OC(C)=O | 12.5 (≈ 7.87 µg/mL) | 0.35 | 25 (≈ 15.7 µg/mL) | 6.25 (≈ 3.94 µg/mL) | 25 (≈ 15.7 µg/mL) | 25 (≈ 15.7 µg/mL) | 25 (≈ 15.7 µg/mL) | 6.25 (≈ 3.94 µg/mL) | 389.53 | 6.25 (≈ 3.94 µg/mL) | 10.57 | 6.25 (≈ 3.94 µg/mL) | 25 (≈ 15.7 µg/mL) | 6.25 (≈ 3.94 µg/mL) | 6.25 (≈ 3.94 µg/mL) | 3.12 (≈ 1.97 µg/mL) | 25 (≈ 15.7 µg/mL)
7 | CC(=O)OC[C@H]1O[C@@H](NC(=S)N/N=C2/C(=O)Nc3ccc(C(C)C)cc32)[C@H](OC(C)=O)[C@@H](OC(C)=O)[C@@H]1OC(C)=O | 100 (≈ 59.3 µg/mL) | 1.75 | 25 (≈ 14.8 µg/mL) | 12.5 (≈ 7.41 µg/mL) | 25 (≈ 14.8 µg/mL) | 50 (≈ 29.6 µg/mL) | 50 (≈ 29.6 µg/mL) | 100 (≈ 59.3 µg/mL) | 260.61 | 12.5 (≈ 7.41 µg/mL) | 5.82 | 12.5 (≈ 7.41 µg/mL) | 25 (≈ 14.8 µg/mL) | 12.5 (≈ 7.41 µg/mL) | 12.5 (≈ 7.41 µg/mL) | 25 (≈ 14.8 µg/mL) | 50 (≈ 29.6 µg/mL)
8 | CC(=O)OC[C@H]1O[C@@H](NC(=S)N/N=C2/C(=O)Nc3ccccc32)[C@H](OC(C)=O)[C@@H](OC(C)=O)[C@@H]1OC(C)=O | 100 (≈ 55.1 µg/mL) | 1.77 | 100 (≈ 55.1 µg/mL) | 100 (≈ 55.1 µg/mL) | 50 (≈ 27.5 µg/mL) | 50 (≈ 27.5 µg/mL) | 100 (≈ 55.1 µg/mL) | 200 (≈ 110 µg/mL) | 295.32 | 200 (≈ 110 µg/mL) | 5.81 | 200 (≈ 110 µg/mL) | 50 (≈ 27.5 µg/mL) | 200 (≈ 110 µg/mL) | 200 (≈ 110 µg/mL) | 100 (≈ 55.1 µg/mL) | 50 (≈ 27.5 µg/mL)
9 | CC(=O)OC[C@H]1O[C@@H](NC(=S)N/N=C2/C(=O)Nc3ccc(Br)cc32)[C@H](OC(C)=O)[C@@H](OC(C)=O)[C@@H]1OC(C)=O | 6.25 (≈ 3.93 µg/mL) | 0.32 | 12.5 (≈ 7.87 µg/mL) | 6.25 (≈ 3.93 µg/mL) | 50 (≈ 31.5 µg/mL) | 50 (≈ 31.5 µg/mL) | 12.5 (≈ 7.87 µg/mL) | 12.5 (≈ 7.87 µg/mL) | 394.43 | 3.12 (≈ 1.96 µg/mL) | 10.47 | 1.56 (≈ 0.982 µg/mL) | 50 (≈ 31.5 µg/mL) | 6.25 (≈ 3.93 µg/mL) | 1.56 (≈ 0.982 µg/mL) | 6.25 (≈ 3.93 µg/mL) | 50 (≈ 31.5 µg/mL)
10 | CC(=O)OC[C@H]1O[C@@H](NC(=S)N/N=C2/C(=O)Nc3ccc(C)cc32)[C@H](OC(C)=O)[C@@H](OC(C)=O)[C@@H]1OC(C)=O | 100 (≈ 56.5 µg/mL) | 1.7 | 100 (≈ 56.5 µg/mL) | 12.5 (≈ 7.06 µg/mL) | 25 (≈ 14.1 µg/mL) | 25 (≈ 14.1 µg/mL) | 25 (≈ 14.1 µg/mL) | 100 (≈ 56.5 µg/mL) | 258.47 | 12.5 (≈ 7.06 µg/mL) | 5.91 | 12.5 (≈ 7.06 µg/mL) | 25 (≈ 14.1 µg/mL) | 12.5 (≈ 7.06 µg/mL) | 12.5 (≈ 7.06 µg/mL) | 25 (≈ 14.1 µg/mL) | 25 (≈ 14.1 µg/mL)
